Test results from patent US9546151B2, “VMAT inhibitory compounds” (Oregon Health & Science University, priority 2014, dated 2017).
Counter-ions that a name gives are not always drawn. Like-named read-outs stand apart in the source and are kept apart here.

What was measured:
VMAT2 [1] = molecular target: T1, VMAT2 (Homo sapiens, UniProt Q05940); experiment: hVMAT2 [3H]DTBZ ([3H]DHTB) binding assay; parameters: expressed in transfected cells; host or cells: HEK (human embryonic kidney) cells
Experimental: (§1) Membrane preparation for binding, uptake and release assays using HEK-hVMAT2 cells: Human embryonic kidney cells expressing the human vesicular monoamine transporter 2 (HEK-hVMAT2) were used. HEK-hVMAT2 cells were grown until confluent. The media was removed from plates, solution A [sucrose (0.32 M) with protease inhibitors] was added to the plate, and cells were scraped from plate. Cells were homogenized with 12 strokes of a glass/glass homogenizer. The homogenate was centrifuged at 800×g for 10 min. The supernatant was removed and saved, and the pellet was resuspended, homogenized and centrifuged as above. The supernatants were combined and centrifuged at 10,000×g for 20 min. The pellet was resuspended in solution A (0.75 ml). The membranes were osmotically shocked by addition of 2.625 ml ice cold water and homogenized by 5 strokes of a glass/Teflon homogenizer. The osmolarity was reestablished with addition of Tris (338 μl, 0.25M, pH 7.4 at 4° C.), sodium potassium tartrate (338 μl, 1.0 M), and MgSO4 (4 μl, 0.9M). The homogenate was centrifuged at 20,000×g for 20 min.
Binding was terminated by filtration over Whatman GF/C filters using a Tomtec 96-well cell harvester. Filters were washed for six seconds with ice-cold saline. Scintillation fluid was added to each square and radioactivity remaining on the filters was determined using a Wallac μ- or beta-plate reader. Specific binding was defined as the difference in binding observed in the presence and absence of Ro4-1284 (10 μM, generously supplied by Hoffman LaRoche). Three or more independent competition experiments were conducted with duplicate determinations.

VMAT2 [2] = molecular target: T1, VMAT2; experiment: hVMAT2 5HT Uptake; assay type: biochemical; parameters: expressed in transfected cells; host or cells: HEK (human embryonic kidney) cells
Experimental: as §1

[3] = cells printed in μM under a head in nM, HEK-hVMAT2 membranes
[4] = [^3H]5HT uptake, HEK-hVMAT2 preparation, read-out: hVMAT2 5HT Uptake IC50 (nM) ± SEM

T1 sequence (Q05940 whole entry): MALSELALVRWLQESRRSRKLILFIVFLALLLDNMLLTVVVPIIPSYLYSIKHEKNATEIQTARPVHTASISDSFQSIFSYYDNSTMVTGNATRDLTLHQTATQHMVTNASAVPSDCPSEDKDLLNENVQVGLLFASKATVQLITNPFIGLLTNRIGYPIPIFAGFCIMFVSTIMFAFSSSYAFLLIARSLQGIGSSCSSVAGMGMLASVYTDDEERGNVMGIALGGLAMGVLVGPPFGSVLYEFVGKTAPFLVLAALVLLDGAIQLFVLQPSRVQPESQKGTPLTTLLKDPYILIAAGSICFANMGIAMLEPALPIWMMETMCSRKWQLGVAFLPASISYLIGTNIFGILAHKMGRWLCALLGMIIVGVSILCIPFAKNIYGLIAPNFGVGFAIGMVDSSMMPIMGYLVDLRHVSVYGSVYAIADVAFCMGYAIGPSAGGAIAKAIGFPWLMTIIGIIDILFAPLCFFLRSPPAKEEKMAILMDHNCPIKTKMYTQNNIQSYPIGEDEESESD

Compound | melting point [°C] | Ki (VMAT2 [1]) [µM] | IC50 (VMAT2 [2]) [nM] | Ki (VMAT2 [1]; [3]) [µM] | IC50 (VMAT2 [2]; [4]) [nM]
CCOC(=O)[C@H]1CN(CCCCn2c(=O)[nH]c3ccccc3c2=O)CC[C@H]1c1ccc(F)cc1 (racemic) [n=3, (±)-syn-Ethyl 1-(4-(2,4-dioxo-1,2-dihydroquinazolin-3(4H)-yl)butyl)-4-(4-fluorophenyl)piperidine-3-carboxylate] | 148.5 to 149.7 | > 10 | 133 ± 52 |  | 
CCOC(=O)[C@@H]1CN(CCn2c(=O)[nH]c3ccccc3c2=O)CC[C@@H]1c1ccc(F)c(F)c1 (racemic) [Compound 5ss, (±)-syn-Ethyl 4-(3,4-difluorophenyl)-1-(2-(2,4-dioxo-1,2-dihydroquinazolin-3(4H)-yl)ethyl)piperidine-3-carboxylate] | 196.6 to 198.4 |  |  | > 10 | 100 ± 19
CCOC(=O)[C@@H]1CN(CCn2c(=O)[nH]c3sccc3c2=O)CC[C@@H]1c1ccc(F)cc1 (racemic) [Compound 7a, (±) syn-ethyl 1-(2-(2,4-dioxo-1,2-dihydrothieno[2,3-d]pyrimidin-3(4H)-yl)ethyl)-4-(4-fluorophenyl)piperidine-3-carboxylate] | 198.8 to 201.4 |  |  | > 10 | 133 ± 20
CCOC(=O)[C@@H]1CN(CCn2c(=O)[nH]c3ccccc3c2=O)CC[C@@H]1c1ccc([N+](=O)[O-])cc1 (racemic) [Compound 5tt, (±)-syn-Ethyl 4-(4-nitrophenyl)-1-(2-(2,4-dioxo-1,2-dihydroquinazolin-3(4H)-yl)ethyl)piperidine-3-carboxylate] | 216 to 217.4 |  |  | > 10 | 758 ± 165
CCOC(=O)[C@H]1CN(CCn2c(=O)[nH]c3ccccc3c2=O)CC[C@H]1c1cccc(N(C)C)c1 (racemic) (as salt: HCl) [Compound 5aa, (±)-syn-Ethyl 4-(3-(dimethylamino)phenyl)-1-(2-(2,4-dioxo-1,2-dihydroquinazolin-3(4H),-yl)ethyl) piperidine-3-carboxylate] | 179 to 180 |  |  |  | 
CCOC(=O)[C@H]1CN(CCn2c(=O)[nH]c3ccccc3c2=O)CC[C@H]1c1ccc(C(C)C)cc1 (racemic) (as salt: HCl) [Compound 5u, (±)-syn-Ethyl 1-(2-(2,4-dioxo-1,2-dihydroquinazolin-3(4H),-yl)ethyl)-4-(4-isopropylphenyl) piperidine-3-carboxylate] | 153 to 154 |  |  |  | 
CCOC(=O)[C@H]1CN(CCn2c(=O)[nH]c3ccccc3c2=O)CC[C@H]1c1cccc(OC(F)(F)F)c1 (racemic) (as salt: HCl) [Compound 5jj, (±)-syn-Ethyl 1-(2-(2,4-dioxo-1,2-dihydroquinazolin-3(4H)-yl)ethyl)-4-(3-(trifluoromethoxy)phenyl)piperidine-3-carboxylate] | 155 to 156 |  |  |  | 
CCOC(=O)[C@H]1CN(CCn2c(=O)[nH]c3ccccc3c2=O)CC[C@H]1c1ccccc1C (racemic) (as salt: HCl) [Compound 5z, (±)-syn-Ethyl 1-(2-(2,4-dioxo-1,2-dihydroquinazolin-3(4H),-yl)ethyl)-4-(o-tolyl)piperidine-3-carboxylate] | 174 to 175 |  |  |  | 
CCOC(=O)[C@H]1CN(CCn2c(=O)[nH]c3ccccc3c2=O)CC[C@H]1c1cccc(C)c1 (racemic) (as salt: HCl) [Compound 5y, (±)-syn-Ethyl 1-(2-(2,4-dioxo-1,2-dihydroquinazolin-3(4H),-yl)ethyl)-4-(m-tolyl)piperidine-3-carboxylate] | 148.5 to 150 |  |  |  | 
CCOC(=O)[C@@H]1CN(CCn2c(=O)c3ccccc3n(Cc3ccccc3)c2=O)CC[C@@H]1c1ccc(F)cc1 (racemic) [Compound 6c, (±) syn-ethyl 1-(2-(1-benzyl-2,4-dioxo-1,2-dihydroquinazolin-3(4H)-yl)ethyl)-4-(4-fluorophenyl)piperidine-3-carboxylate] | 134.9 to 136.4 |  |  | > 7 | 270 ± 53
CCOC(=O)[C@H]1CN(CCn2c(=O)[nH]c3ccccc3c2=O)CC[C@H]1c1ccc(CC)cc1 (racemic) (as salt: HCl) [Compound 5t, (±)-syn-Ethyl 1-(2-(2,4-dioxo-1,2-dihydroquinazolin-3(4H),-yl)ethyl)-4-(4-ethylphenyl) piperidine-3-carboxylate] | 145 to 146 |  |  |  | 
CCOC(=O)[C@H]1CN(CCn2c(=O)[nH]c3ccccc3c2=O)CC[C@H]1c1ccc(OC)c(OC)c1 (racemic) (as salt: HCl) [Compound 5dd, (±)-syn-Ethyl 4-(3,4-dimethoxyphenyl)-1-(2-(2,4-dioxo-1,2-dihydroquinazolin-3(4H),-yl)ethyl) piperidine-3-carboxylate] | 154.5 to 155.5 |  |  |  | 
CCOC(=O)[C@@H]1CN(CCn2c(=O)[nH]c3ccccc3c2=O)CC[C@@H]1c1cccc(F)c1 (racemic) [Compound 5e] | 170.6 to 171.4 |  |  | > 10 | 63 ± 10
COC(=O)[C@H]1CN(CCn2c(=O)[nH]c3ccccc3c2=O)CC[C@H]1c1ccc(F)cc1 (racemic) (as salt: HCl) [Compound 10a, (±)-syn-Methyl 1-(2-(2,4-dioxo-1,2-dihydroquinazolin-3(4H),-yl)ethyl)-4-(4-fluorophenyl) piperidine-3-carboxylate] | 191.5 to 193 |  |  |  | 
CCOC(=O)C1=C(c2ccccc2C(F)(F)F)CCN(CCn2c(=O)[nH]c3ccccc3c2=O)C1 (as salt: HCl) [Compound 5hh, Ethyl 1-(2-(2,4-dioxo-1,2-dihydroquinazolin-3(4H)-yl)ethyl)-4-(2-(trifluoromethyl)phenyl)-1,2,5,6-tetrahydropyridine-3-carboxylate] | 153.5 to 154.5 |  |  |  | 
CCOC(=O)[C@H]1CN(CCn2c(=O)[nH]c3ccccc3c2=O)CC[C@H]1c1ccccc1F (racemic) [Compound 5x, (±)-syn-Ethyl 1-(2-(2,4-dioxo-1,2-dihydroquinazolin-3(4H)-yl)ethyl)-4-(2-fluorophenyl)piperidine-3-carboxylate] | 182.8 to 183.6 |  |  | > 10 | 28 ± 12
CCOC(=O)[C@@H]1CN(CCn2c(=O)[nH]c3ccccc3c2=O)CC[C@@H]1c1cccc(Cl)c1 (racemic) [Compound 5pp, (±) syn-ethyl 4-(3-chlorophenyl)-1-(2-(2,4-dioxo-1,2-dihydroquinazolin-3(4H)-yl)ethyl)piperidine-3-carboxylate] | 161.8 to 162.9 |  |  | > 9 | 34 ± 8
O=c1[nH]c2ccccc2c(=O)n1CCN1CC=C(c2ccc(F)cc2)CC1 | 208 |  |  |  | 
CCOC(=O)[C@@H]1CN(CCn2c(=O)[nH]c3sccc3c2=O)CC[C@@H]1c1ccc(C(F)(F)F)cc1 (racemic) [Compound 7c, (±) syn-ethyl 1-(2-(2,4-dioxo-1,2-dihydrothieno[2,3-d]pyrimidin-3(4H)-yl)ethyl)-4-(4-(trifluoromethyl)phenyl)piperidine-3-carboxylate] | 190.3 to 191.5 |  |  | > 10 | 1470 ± 65
CCOC(=O)[C@@H]1CN(CCn2c(=O)[nH]c3ccccc3c2=O)CC[C@@H]1c1ccc(Cl)cc1 (racemic) [Compound 5oo, (±) syn-ethyl 4-(4-chlorophenyl)-1-(2-(2,4-dioxo-1,2-dihydroquinazolin-3(4H)-yl)ethyl)piperidine-3-carboxylate] | 194.8 to 196.1 |  |  | > 10 | 49 ± 1
CCOC(=O)[C@@H]1CN(CCn2c(=O)[nH]c3sccc3c2=O)CC[C@@H]1c1cccc(F)c1 (racemic) [Compound 7b, (±) syn-ethyl 1-(2-(2,4-dioxo-1,2-dihydrothieno[2,3-d]pyrimidin-3(4H)-yl)ethyl)-4-(3-fluorophenyl)piperidine-3-carboxylate] | 153.3 to 155.1 |  |  | > 10 | 200 ± 51
CC(C)OC(=O)[C@H]1CN(CCn2c(=O)[nH]c3ccccc3c2=O)CC[C@H]1c1ccc(F)cc1 (racemic) (as salt: HCl) [Compound 10b, (±)-syn-Isopropyl 1-(2-(2,4-dioxo-1,2-dihydroquinazolin-3(4H),-yl)ethyl)-4-(4-fluorophenyl)piperidine-3-carboxylate] | 157.5 to 159 |  |  |  | 
CCOC(=O)[C@H]1CN(CCn2c(=O)[nH]c3ccccc3c2=O)CC[C@H]1c1ccc(O)c(O)c1 (racemic) (as salt: HCl) [Compound 5ff, (±)-syn-Ethyl 4-(3,4-dihydroxyphenyl)-1-(2-(2,4-dioxo-1,2-dihydroquinazolin-3(4H)-yl)ethyl)piperidine-3-carboxylate] | 167 to 168.5 |  |  |  | 
